Experimental data published in ChEMBL document CHEMBL1140984, “A small molecule inhibitor of alpha4 integrin-dependent cell migration” (Bioorg Med Chem, 2009).
pIC50: −log10 of the molar value. Activity calls are given as the source filed them. The rule behind the calls is not given here.

What was measured:
[1] = molecular target: Integrin alpha-4 (Homo sapiens) (UniProt P13612); experiment: Inhibition of alpha4 integrin-dependent cell migration in CHO cells expressing alpha4 integrin after 12 hrs by wound healing assay; type: cell-based
[2] = system: Jurkat; experiment: Inhibition of human Jurkat T cell motility after 4.5 hrs by modified Boyden chamber assay; type: functional, cell-based
[3] = molecular target: T1, Gamma-parvin (Homo sapiens) (UniProt Q9HBI0); experiment: Binding affinity to gamma-parvin in human Jurkat cells at 100 uM by Western blot analysis; type: cell-based
T1 sequence (whole entry): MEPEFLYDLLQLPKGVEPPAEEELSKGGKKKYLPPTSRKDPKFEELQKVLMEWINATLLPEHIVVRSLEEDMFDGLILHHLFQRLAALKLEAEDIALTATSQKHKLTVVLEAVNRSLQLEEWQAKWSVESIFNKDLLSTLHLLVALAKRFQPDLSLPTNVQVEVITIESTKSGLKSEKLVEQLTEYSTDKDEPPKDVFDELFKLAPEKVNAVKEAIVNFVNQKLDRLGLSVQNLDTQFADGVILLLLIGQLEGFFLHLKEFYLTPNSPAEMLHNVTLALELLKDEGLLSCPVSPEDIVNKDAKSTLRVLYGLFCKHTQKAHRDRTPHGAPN

[4] = molecular target: Adenosine kinase (Homo sapiens) (UniProt P55263); experiment: Binding affinity to ADK in human Jurkat cells at 100 uM by Western blot analysis; type: cell-based
[5] = molecular target: Integrin alpha-4 (Homo sapiens) (UniProt P13612); experiment: Inhibition of alpha4 integrin-dependent cell migration in PMA-stimulated human Jurkat cells at 1 or 5 uM after 4.5 hrs; type: cell-based; parameters: scale not given: the % may be the effect or the level left
[6] = molecular target: Integrin alpha-4 (Homo sapiens) (UniProt P13612); experiment: Inhibition of alpha4 integrin-dependent cell migration in SDF1-alpha-stimulated human Jurkat cells at 1 or 5 uM after 4.5 hrs; type: cell-based; parameters: scale not given: the % may be the effect or the level left
[7] = molecular target: Integrin alpha-4 (Homo sapiens) (UniProt P13612); experiment: Inhibition of alpha4 integrin-dependent cell migration in PMA-stimulated human U937 cells at 1 or 5 uM after 4.5 hrs; type: cell-based; parameters: scale not given: the % may be the effect or the level left; details: U-937
[8] = molecular target: Integrin alpha-4 (Homo sapiens) (UniProt P13612); experiment: Inhibition of alpha4 integrin-dependent cell migration in SDF1-alpha-stimulated human U937 cells at 1 or 5 uM after 4.5 hrs; type: cell-based; parameters: scale not given: the % may be the effect or the level left; details: U-937

Integrin alpha-4 (Homo sapiens), sequence (P13612 whole entry): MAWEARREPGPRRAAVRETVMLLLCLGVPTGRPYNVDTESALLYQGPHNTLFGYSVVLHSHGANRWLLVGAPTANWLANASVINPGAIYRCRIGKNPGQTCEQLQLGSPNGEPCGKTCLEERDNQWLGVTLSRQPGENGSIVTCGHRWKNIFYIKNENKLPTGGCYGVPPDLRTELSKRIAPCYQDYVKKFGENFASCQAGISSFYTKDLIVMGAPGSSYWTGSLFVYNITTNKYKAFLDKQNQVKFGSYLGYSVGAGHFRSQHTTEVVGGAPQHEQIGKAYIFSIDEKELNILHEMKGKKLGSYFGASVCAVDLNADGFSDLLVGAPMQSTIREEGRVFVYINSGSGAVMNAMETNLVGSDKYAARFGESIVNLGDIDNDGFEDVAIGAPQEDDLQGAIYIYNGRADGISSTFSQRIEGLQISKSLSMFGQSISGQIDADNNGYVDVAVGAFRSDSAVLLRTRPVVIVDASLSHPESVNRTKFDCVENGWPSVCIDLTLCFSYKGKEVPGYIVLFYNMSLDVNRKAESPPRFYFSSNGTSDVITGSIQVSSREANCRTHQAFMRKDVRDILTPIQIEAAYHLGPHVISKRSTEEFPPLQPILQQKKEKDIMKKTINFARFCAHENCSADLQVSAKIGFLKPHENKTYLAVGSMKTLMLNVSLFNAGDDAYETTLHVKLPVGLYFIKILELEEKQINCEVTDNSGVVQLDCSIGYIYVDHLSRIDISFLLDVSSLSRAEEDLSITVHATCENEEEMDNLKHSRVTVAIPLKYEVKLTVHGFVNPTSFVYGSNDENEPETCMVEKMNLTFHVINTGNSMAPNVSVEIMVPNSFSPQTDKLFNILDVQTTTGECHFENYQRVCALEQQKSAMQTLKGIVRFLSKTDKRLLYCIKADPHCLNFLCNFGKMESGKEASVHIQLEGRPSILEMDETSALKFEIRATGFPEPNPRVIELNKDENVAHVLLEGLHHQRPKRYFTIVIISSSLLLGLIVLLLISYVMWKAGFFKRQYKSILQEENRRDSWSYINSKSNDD
Adenosine kinase (Homo sapiens), sequence (P55263 2-362 limits assumed): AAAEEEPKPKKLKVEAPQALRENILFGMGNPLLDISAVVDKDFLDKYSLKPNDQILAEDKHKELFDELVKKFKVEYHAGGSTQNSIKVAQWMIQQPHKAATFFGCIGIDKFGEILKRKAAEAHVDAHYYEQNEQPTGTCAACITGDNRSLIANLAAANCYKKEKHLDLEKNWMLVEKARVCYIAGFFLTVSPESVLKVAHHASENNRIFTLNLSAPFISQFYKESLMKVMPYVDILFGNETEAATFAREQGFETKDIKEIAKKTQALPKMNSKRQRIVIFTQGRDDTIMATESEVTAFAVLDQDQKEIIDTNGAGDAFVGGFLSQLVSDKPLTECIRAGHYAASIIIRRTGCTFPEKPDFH

Activity [1]: Dose-dependent effect
pIC50 [2]: 6.30
Activity [3]: Active
Activity [4]: Active
Activity [5]: 40%
Activity [6]: 40%
Activity [7]: 40%
Activity [8]: 40%
SMILES: Nc1ccc(-c2cc3c(Nc4cccc(Cl)c4)ncnc3[nH]2)cc1
